Results on 51 compounds are retold here after PubChem BioAssay AID1996.

Converted amounts (≈) assume the structure as drawn.

For the series the following is noted: buffer; pH 7.4; 200.0 µM.
For `CN(C)c1nc(-c2cccs2)cc(C(F)(F)F)c1C#N`, the solubility (kinetic) came to 0.3 µg/mL (≈ 1.01 µM).
The compound `Cc1ccc(Cl)c(NC(=O)CSc2cccc[n+]2[O-])c1Cl` yielded a kinetic solubility of more than 51.5 µg/mL.
In the case of `CCc1ccc(C(=O)COC(=O)c2cnc(C)cn2)cc1`, the solubility (kinetic) was more than 42.6 µg/mL.
In turn, `Cc1ccc(CS(=O)(=O)c2nc3c(c(N(C)C)n2)CCCC3)cc1` displayed a solubility (kinetic) of 46 µg/mL (≈ 133 µM).
`Cc1ccc(Cl)c(NC(=O)COC(=O)c2cc[n+]([O-])cc2)c1Cl` returned a solubility (kinetic) of more than 53.3 µg/mL.
The figure for `CCC(=O)OCC(=O)Nc1cc([N+](=O)[O-])ccc1OC` is 40.9 µg/mL (≈ 145 µM); for `Cc1cc(=O)[nH]c(Nc2ccc(Cl)cc2)n1` it is more than 35.4 µg/mL; for `Cc1nc(Nc2ccc3c(c2)OCCO3)c2c(C)c(C)sc2n1` it is 3.6 µg/mL (≈ 11 µM).
As for `Cc1ccc(C)c(S(=O)(=O)N2CCN(C(=O)[C@H](Cc3ccccc3)NC(=O)c3ccco3)CC2)c1`, the solubility (kinetic) turned out to be 18.2 µg/mL (≈ 36.7 µM).
As for `CC(=O)N(/C=C1\SC(=S)N(c2ccccc2)C1=O)c1ccccc1`, the figure is 10 µg/mL (≈ 28.2 µM).
As for `CCCCS(=O)(=O)N1CCCC(C(=O)NCCc2ccccc2)C1` (stereo unspecified), the figure is 14.7 µg/mL (≈ 41.7 µM); as for `NNC(=O)Cn1c(-c2ccccc2)cc2ccccc21`, more than 39.8 µg/mL; as for `COCc1nnc(NC(=O)C2CC(=O)N(C3CCCCC3)C2)s1` (stereo unspecified), more than 50.8 µg/mL.
As for `Nc1nc(SCC(=O)Nc2cccc([N+](=O)[O-])c2)n[nH]1`, the figure is more than 44.1 µg/mL; as for `COc1ccc2nc(-c3ccccc3)cc(C(=O)N3CCC3)c2c1`, more than 47.8 µg/mL; as for `CN(Cc1ccccc1)c1cc(Cl)nc(N)n1`, 21.5 µg/mL (≈ 86.4 µM).
`Cc1ccc(NC(=O)NCCCCc2ccccc2)cc1`: the kinetic solubility is less than 0.3 µg/mL.
Consider `COc1cc(/C=C/C(=O)OCC(=O)NCCC2=CCCCC2)cc(OC)c1OC`, for which the solubility (kinetic) was determined as 33.3 µg/mL (≈ 82.5 µM).
As for `Cl.ClCCN1C2=NCCCN2c2ccccc21`, the figure is more than 40.8 µg/mL.
As for `Cl.NCC(O)c1ccc(O)cc1` (stereo unspecified), the figure is more than 28.4 µg/mL; as for `O=S(=O)(c1ccc(Cl)cc1)N1CCc2ccccc21`, 6.1 µg/mL (≈ 20.8 µM); as for `CCn1c(=O)cc(N2CCN(C(=O)c3ccco3)CC2)[nH]c1=O`, more than 47.7 µg/mL.
The compound `Cc1ccc(C)c(NC(=O)C2CCCN2C(=O)NC2CCCCC2)c1` (stereo unspecified) had a kinetic solubility of 29 µg/mL (≈ 84.4 µM).
The figure for `CCOC(=O)N1CCN(c2ccnc3cc(Cl)ccc23)CC1` is 43.9 µg/mL (≈ 137 µM); for `Cc1ccc2cc(CCl)c(Cl)nc2c1` it is 3.7 µg/mL (≈ 16.4 µM).
In turn, `Cc1ccc2nc(SCC(=O)NCc3ccc(F)cc3)[nH]c2c1` registered a kinetic solubility of 22.4 µg/mL (≈ 68 µM).
The figure for `CCOc1ccc(Nc2nc(-c3cccnc3)cs2)cc1` is less than 0.2 µg/mL; for `CCn1c(/C=C/c2ccc(O)cc2)nc2ccccc2c1=O` it is 2.8 µg/mL (≈ 9.58 µM); for `COc1ccc(OCCC(=O)OCC(=O)Nc2cccc(S(=O)(=O)N3CCCCC3)c2)cc1` it is 30.5 µg/mL (≈ 64 µM).
As for `CCN(c1ccccc1)S(=O)(=O)c1ccc(N2CCN(c3ccc(O)cc3)CC2)nc1`, the figure is 2.7 µg/mL (≈ 6.16 µM); as for `Clc1ccc(CN2CCCCCC2)cc1Cl`, 9 µg/mL (≈ 34.9 µM).
Consider `C/C(=N\NC(=O)c1cccnc1)c1ccccc1`, for which the solubility (kinetic) is more than 35.9 µg/mL.
As for `Nc1nc(NCc2ccco2)nc(Nc2ccccc2)c1[N+](=O)[O-]`, the figure is 0.4 µg/mL (≈ 1.23 µM).
As for `CN(C)c1ccc(NC(=O)Cc2ccccc2)c2ccccc12`, the figure is 5.3 µg/mL (≈ 17.4 µM); as for `O=C(CCCN1C(=O)c2cccnc2C1=O)Nc1ccccc1F`, 46.4 µg/mL (≈ 142 µM); as for `CC(C)c1ccc(OCC(=O)N2CCc3ccccc3C2)cc1`, 9 µg/mL (≈ 29.1 µM).
In the case of `Cc1ccc(NC(=O)Nc2cccnc2)cc1`, the solubility (kinetic) is more than 34.1 µg/mL.
With `Nc1c(N=O)c(=O)[nH]c(=O)n1-c1ccccc1`, the kinetic solubility is more than 34.8 µg/mL.
The figure for `Clc1ccc(-c2ccnc(-n3cccc3)n2)s1` is less than 0.2 µg/mL; for `Cc1ccnc(NC(=O)CNC(=O)c2ccco2)c1` it is more than 38.9 µg/mL; for `CCc1ccc(Nc2nc(C)cc(C)n2)cc1.Cl` it is 18.4 µg/mL.
As for `O=C(NC1CCCCCC1)c1cccc(S(=O)(=O)N2CCOCC2)c1`, the figure is 6.5 µg/mL (≈ 17.7 µM); as for `COc1ccc(CCN=C(N)NS(=O)(=O)c2ccc(C)c(C)c2)cc1OC`, more than 58.7 µg/mL.
The figure for `O=C(CSc1ccccc1F)Nc1ccc2c(c1)OCO2` is 45.4 µg/mL (≈ 149 µM); for `Cc1nc2oc3c(=O)[nH]cnc3c2c2c1COC(C)(C)C2` it is 40 µg/mL (≈ 140 µM).
For `C=CCNC(=O)c1cnn(-c2ccccc2)c1-c1ccccc1`, the solubility (kinetic) is more than 45.5 µg/mL.
For `O=C(NCCCNC(=O)c1c(F)cccc1F)c1c(F)cccc1F`, the kinetic solubility was more than 53.1 µg/mL.
As for `O=C(NCC1CCCO1)c1cc(C(=O)C2CCCCC2)c[nH]1` (stereo unspecified), the figure is more than 45.7 µg/mL; as for `CCOC(=O)c1cnc2c(C)cccc2c1Nc1cccc(C(=O)O)c1.Cl`, more than 58 µg/mL; as for `COc1ccc(-n2c(=S)[nH]c3sc4c(c3c2=O)CCc2ccccc2-4)cc1`, 1.4 µg/mL (≈ 3.57 µM).
As for `CC(CN1CCOCC1)OC(=O)c1ccccc1Cl.Cl` (stereo unspecified), the figure is more than 48 µg/mL.

What is called solubility (kinetic) is solubility judged after dilution from a stock solution rather than from solid.
